One compound from publication PMC5848165 (Toxins, 2018) can be followed below.

Entries after “also recorded” stand apart in the source; their conditions may differ. Like-named read-outs stand apart in the source and are kept apart here. Residues, ends and D or L forms follow the SMILES beside them.

In experiment [1] the test system is TTX-R sodium channels from rat DRG neurons. Nature of the experiment: Whole-cell patch clamp, TTX-R sodium currents in rat DRG neurons. As to conditions: 1 µM synthetic JZTX-34; 100 nM TTX in external solution; −10 mV from −80 mV. Type of experiment: cell-based, rat (Sprague-Dawley). (In general: In patch-clamp work, channel activity is measured electrically.)
The subject of experiment [2] is hot plate test in mice. Nature of the experiment: Hot plate test. It is filed as in vivo, mouse (Kunming). As to conditions: for hot plate latency: 120 min, baseline about 10 s, n = 6. The procedure:
(§1) Figure 6 Effects of JZTX-34 on pain. (A) Effects of JZTX-34 on the early phase (0–5 min) and late phase (15–30 min) of formalin-induced paw licking response in mice. (B) Effects of JZTX-34 on the acetic acid-induced writhing response in mice. (C)Effects of JZTX-34 on the hot plate test in mice.
Mice with a latency time about 10 s were selected for the hot plate test. […] After administration of test samples, the latency time was recorded at the time points of 30 min, 60 min, 120 min, and 180 min (Figure 6C). Negative control animals received the same volume of vehicle.
(§2) The synthesized JZTX-34 was obtained according to the procedure as previously described. […] Rats (Sprague-Dawley) and Kunming mice were maintained in the Laboratory of Protein Chemistry of Hunan Normal University. All of the experimental involving animals were approved by the Animal Care and Use Committee of Hunan Normal University (2016-273, 13 October 2016).
Mice were put on a hot plate apparatus (model HZ66-ZH-YLS-6B, Shanghai, China) in order to test response time to a thermal stimulus. The responses time of mice at about 10 s was selected for the test. […] Hind paw licking or jumping were regarded as a sign to avoid heat nociception.
(§3) Data from Axon 700B patch clamp were analyzed by Clampfit10.0 (Molecular Devices, Sunnyvale, CA, USA). Dose-response curves were fitted by the Hill logistic equation: y = 1 − (1 − fmax)/[…]. In this equation, n stands an empirical Hill coefficient and fmax is the fraction of current resistant to inhibition at high toxin (Tx) concentration. The G-V curves were obtained by calculating the conductance (G) at each voltage (V) using the equation G = I/(V1 − Vrev), with Vrev being the reversal potential determined for each cell individually. G-V curves were fitted using a Boltzmann equation—y = 1/(1 + exp[(Va − V)/κ])—in which Va, V, and κ represent midpoint voltage of kinetics, test potential, and slope factor, respectively. […] Statistical significance was calculated using Student’s t-test and was defined as p < 0.05.

Experiment [3] relates to Nav1.2. Nature of the experiment: Whole-cell patch clamp, Nav1.2 in HEK293 cells. It is filed as cell-based, rat. As to conditions: 1 µM, −10 mV from −80 mV. The source says: Nine sodium channel subtypes have been identified and classified as TTX-S (Nav1.1–Nav1.4, Nav1.6, and Nav1.7) or TTX-R types (Nav1.5, Nav1.8, and Nav1.9). […] However, the subtype selectivity of JZTX-34 on the subtype of sodium channel is still unknown. In this work, effects of JZTX-34 on VGSC subtypes (Nav1.1–Nav1.8) were examined. Nav1.1–Nav1.7 were transfected into HEK293 cells and Nav1.8 currents were expressed in ND cells. Inward sodium currents were elicited by a 50 ms depolarizing potential to −10 mV from a holding potential of −80 mV every 5 s. […] No effects on other sodium channel subtypes were found (Nav1.1, Nav1.2, Nav1.4–Nav1.6, and Nav1.8) (Figure S2). […]
The HEK293T cells were maintained in standard culture conditions (5% CO2 and 37 °C). […] After culturing for 36–72 h, cells with obvious green fluorescence were selected for sodium currents recordings the internal solution for sodium currents recording that contained (in mM) 140 CsF, 5 NaCl, 10 HEPES, 3 Na2-ATP, and 10 EGTA. […]
Sodium currents were recorded from DRG, HEK293, and ND cells by the whole-cell patch-clamp technique at 25 °C. […] Experiments date were acquired from whole-cell Axon 700B patch clamp amplifier (Molecular Devices, Sunnyvale, CA, USA) and analyzed by the program Clampfit10.0 (Molecular Devices, Sunnyvale, CA, USA) and Sigmaplot. […]

In experiment [4] the test system is acetic acid-induced writhing response in mice. It is filed as in vivo, mouse (Kunming). As to conditions: counted 30 min after 0.8% acetic acid i.p., control 61, n = 6.
In experiment [5] the test system is formalin-induced paw licking response in mice. As to the kind of experiment: Formalin-induced paw licking. It is filed as in vivo, mouse (Kunming). As to conditions: for paw licking time, early phase: control 145.5 s; for paw licking time, early phase / paw licking time, late phase: n = 6; for paw licking time, late phase: control 414.5 s. The protocol:
Since Nav1.7 plays an important role in pain, the analgesic effects of JZTX-34 were examined in three animal models (formalin-induced paw licking, acetic acid-induced writhing, and hot plate). Intraplantar injection of formalin causes pain and can be divided into two phases. The early phase was neurogenic pain and usually occurred within […]), and the late phase was inflammatory pain lasting from 15 to 30 min).
as §1, §2
Formalin test was performed according to the method described previously. […] After test samples were intraperitoneally (i.p.) injected, 5% formalin (20 μL) was injected to the plantar surface of right hind paw. The time spent licking the injected paw was counted every 5 min. Phase I was defined as 0–10 min, and Phase II defined as […].
as §3

The mark [6] stands for this setting: JZTX-34 2 mg/kg vs morphine 5 mg/kg.

For the compound `CC(C)C[C@@H]1NC(=O)[C@H](Cc2c[nH]c3ccccc23)NC(=O)[C@H](CCC(=O)O)NC(=O)[C@H](CCCNC(=N)N)NC(=O)[C@@H](NC(=O)[C@H](C)N)CSSC[C@@H]2NC(=O)[C@@H]3CSSC[C@@H](C(=O)N[C@H](C(=O)N[C@@H](Cc4c[nH]c5ccccc45)C(=O)N[C@@H](CC(=O)O)C(=O)N[C@@H](Cc4c[nH]c5ccccc45)C(=O)N[C@H](C(=O)N[C@H](C(=O)O)C(C)C)[C@@H](C)O)C(C)C)NC(=O)[C@H](Cc4c[nH]cn4)NC(=O)[C@H](Cc4ccc(O)cc4)NC(=O)[C@@H]4CCCN4C(=O)[C@H](Cc4c[nH]c5ccccc45)NC(=O)[C@H](CCCCN)NC(=O)[C@H](CCCCN)NC(=O)[C@H](CCCNC(=N)N)NC(=O)[C@H](CSSC[C@H](NC(=O)CNC(=O)CNC1=O)C(=O)N[C@@H](CO)C(=O)N[C@@H](CCCCN)C(=O)N[C@@H](CC(=O)O)C(=O)N[C@@H](C)C(=O)N[C@@H](CC(=O)O)C(=O)N3)NC(=O)[C@H](CCC(=O)O)NC(=O)[C@H](CC(C)C)NC(=O)[C@H](Cc1c[nH]cn1)NC(=O)[C@H](C)NC2=O` [JZTX-34, Jingzhaotoxin-34] (HELM PEPTIDE1{A.C.R.E.W.L.G.G.C.S.K.D.A.D.C.C.A.H.L.E.C.R.K.K.W.P.Y.H.C.V.W.D.W.T.V}$PEPTIDE1,PEPTIDE1,2:R3-16:R3|PEPTIDE1,PEPTIDE1,9:R3-21:R3|PEPTIDE1,PEPTIDE1,15:R3-29:R3$$$V2.0; N-terminus and C-terminus assumed), in experiment [1], the “effect on TTX-R sodium currents” value was “had no effect on TTX-R sodium currents”. The hot plate latency in experiment [2] (0.5 mg/kg i.p.) came out at 18.3 s; in experiment [2] (1 mg/kg i.p.), 23.0 s; in experiment [2] (2 mg/kg i.p.), 31.6 s. The “time of maximal analgesia, hot plate” value in experiment [2] (0.5, 1 or 2 mg/kg i.p.) is reported as 120 min. Further, the “hot plate, analgesia vs morphine” value in experiment [2] (setting [6]) is “longer duration and is more effective than morphine; also recorded: longer and stronger analgesia effects than 5 mg/kg morphine”. The “effect on Nav1.2 currents” value in experiment [3] is “No effects”. Moreover, the number of writhing in experiment [4] (0.5 mg/kg i.p.) came out at 38; in experiment [4] (1 mg/kg i.p.) it was 26; in experiment [4] (2 mg/kg i.p.), 11. The “paw licking time, early phase” value is recorded as 125.5 s in experiment [5] (0.5 mg/kg i.p.), 50.1 s in experiment [5] (1 mg/kg i.p.) and 34.7 s in experiment [5] (2 mg/kg i.p.). Further, the “paw licking time, late phase” value worked out at 282.2 s in experiment [5] (0.5 mg/kg i.p.), 263.6 s in experiment [5] (1 mg/kg i.p.) and 148.0 s in experiment [5] (2 mg/kg i.p.). The “formalin first phase, efficacy vs morphine” value in experiment [5] (setting [6]) is “equipotent with morphine (5 mg/kg)”.
